Measurements as given in patent US7572779B2 (priority 2001, dated 2009).

Test: Open-label, single-dose, randomized, crossover oral bioavailability study in healthy postmenopausal women volunteers
Details: single oral tablet
Source text: The study was an open-label, single-dose, randomized, crossover, bioavailability study in nine healthy postmenopausal women volunteers.
Comparison of treatments was based on ratio of least square means from analysis of variance and ratio of individual subject parameter values, e.g. ratio=(AUCtreatment A)/(AUCtreatment B).

In the case of `CC(=O)Oc1ccc2c(c1)CC[C@@H]1[C@@H]2CC[C@]2(C)[C@@H](O)CC[C@@H]12` [17β-estradiol-3-acetate], the “Absorption as indicated by shape of serum estradiol concentration-time profiles” value is reported as “rapidly absorbed and hydrolyzed to 17β-estradiol in vivo”.
